Data from patent US10538099B2, “Inkjet recording apparatus, printer, and method for manufacturing cured product” (Ricoh Company, Ltd., priority 2016, dated 2020).
Where two headings read alike, the source gives them in different places.

Legend:
[1] = evaluated by a test method based on OECD Test Guideline 406 in MSDS; cited from earlier work
female mice = test: Skin sensitization test according to the LLNA (Local Lymph Node Assay), BrdU intake; assay type: in vivo; conditions: test substance 50.0 w/v % in acetone/olive oil 4/1, 25 μL/auricle once a day for three days; SI less than 3 = negative in skin sensitizing property
Protocol: Stimulus index (SI) was measured by a skin sensitization test according to the LLNA (Local Lymph Node Assay) as follows.
As a positive control, α-hexyl cinnamaldehyde (HCA, product of Wako Pure Chemical Industries, Ltd.) was used.
As a medium, a mixture liquid of acetone (product of Wako Pure Chemical Industries, Ltd.) and olive oil (product of Fudimi Pharmaceutical Co., Ltd.) in a volume ratio of 4/1 was used.
Before treated with the test materials, the positive control, or the medium control, female mice were acclimated for 8 days including 6-day quarantine. No abnormalities were found in all the mice (used animals) during the quarantine/acclimation period.
Based on the body weights measured 2 days before the initiation of sensitization, they were categorized into 2 groups (4 mice/group) by the body weight stratified random sampling method so that the body weight of each individual was within ±20% of the average body weight of all the individuals. Each of the used animals was 8 weeks old to 9 weeks old at the time of the initiation of sensitization. […]
About 24 hours after the administration of BrdU, the used animals were allowed to undergo euthanasia, and their auricular lymph nodes were sampled. […] Also, the average of the weights of the auricular lymph nodes and the standard error thereof were calculated for each group. […]

[2] = evaluated by Maximization test method according to the document; cited from earlier work
[3] = risk phrase code R43 or H317; cited from earlier work

Row | Compound | skin sensitizing property [1] | skin sensitizing property [2] | also measured
1 | O=C(c1ccccc1)C1(O)CCCCC1 [1-Hydroxy-cyclohexyl phenyl ketone] | None |  | 
2 | CCC(Cc1ccc(C)cc1)(C(=O)c1ccc(N2CCOCC2)cc1)N(C)C (stereo not drawn) [2-Dimethylamino-2-(4-methylbenzyl)-1-(4-morpholine-4-yl-phenyl)butane-1-one] | None |  | 
3 | C=C(C)C(=O)OCC(CO)OC(=O)C(=C)C (stereo not drawn) [Glycerol dimethacrylate] |  |  | SI measured by the LLNA test (stimulus index) (female mice): 1.2
4 | C=C(C)C(=O)OCCCCCC [n-Hexyl methacrylate] |  | Negative | 
5 | C=C(C)C(=O)OCCCCC [n-Pentyl methacrylate] |  | Negative | 
6 | C=CC(=O)OC(C)(C)C [t-Butyl acrylate] |  |  | skin sensitizing property [3]: Positive
7 | C=C(C)C(=O)OC(C)(C)C [t-Butyl methacrylate] |  | Negative | 
8 | Caprolactone-modified dipentaerythritol hexaacrylate | Negative |  | 
9 | Tricyclodecane dimethanol dimethacrylate |  |  | SI measured by the LLNA test (stimulus index) (female mice): 1.3
